Tests used:
[1] = target: T1, D2S (h) (Homo sapiens, UniProt P14416); experiment: Radioligand binding assay, dopaminergic receptor D2; conditions: test compound 1×10^−6M; [3H]methyl-spiperone; human recombinant (HEK-293 cells)
T1 construct: expressed in transfected cells; host or cells: HEK-293 cells
Protocol: (§1) Specific ligand binding to the receptors is defined as the difference between the total binding and the non-specific binding determined in the presence of an excess of unlabelled ligand.
(§2) The results are expressed as a percent of control specific binding ((measured specific binding/control specific binding)×100%) obtained in the presence of the test compounds. The compounds were tested for their affinity to receptors at a concentration of 1×10^−6M.
(§3) Conditions and methodology of in vitro tests are given by reference to the literature in Table 1, and the results of tests for representative compounds are given in Table 2 (dopaminergic receptors D2 and D3), in Table 3 (dopaminergic receptors D1 and D4.4), in Table 4 (serotoninergic receptors 5-HT1A, 5-HT2A, 5-HT6, 5-HT7), in table 5 (serotoninergic receptors 5-HT2C), in Table 6 (sigma o receptors), in Table 7 (adrenergic receptors α1, histaminergic receptors H1 and muscarinic receptors M3), in Table 8 (adrenergic receptors α2C) and in Table 9 (serotonin transporter receptors SERT).

[2] = target: T2, D3 (h) (Homo sapiens, UniProt P35462); experiment: Radioligand binding assay, dopaminergic receptor D3; conditions: test compound 1×10^−6M; [3H]methyl-spiperone; human recombinant (CHO cells)
T2 construct: expressed in transfected cells; host or cells: CHO cells
Protocol: as §1, §2, §3

[3] = target: T3, D1 (h) (Homo sapiens, UniProt P21728); experiment: Radioligand binding assay, dopaminergic receptor D1; conditions: test compound 1×10^−6M; [3H]SCH 23390; human recombinant (CHO cells)
T3 construct: expressed in transfected cells; host or cells: CHO cells
Protocol: as §1, §2, §3

[4] = target: T4, D4.4 (h) (Homo sapiens, UniProt P21917); experiment: Radioligand binding assay, dopaminergic receptor D4.4; conditions: test compound 1×10^−6M; [3H]methyl-spiperone; human recombinant (CHO cells)
T4 construct: expressed in transfected cells; host or cells: CHO cells
T4 sequence (P21917 1-419): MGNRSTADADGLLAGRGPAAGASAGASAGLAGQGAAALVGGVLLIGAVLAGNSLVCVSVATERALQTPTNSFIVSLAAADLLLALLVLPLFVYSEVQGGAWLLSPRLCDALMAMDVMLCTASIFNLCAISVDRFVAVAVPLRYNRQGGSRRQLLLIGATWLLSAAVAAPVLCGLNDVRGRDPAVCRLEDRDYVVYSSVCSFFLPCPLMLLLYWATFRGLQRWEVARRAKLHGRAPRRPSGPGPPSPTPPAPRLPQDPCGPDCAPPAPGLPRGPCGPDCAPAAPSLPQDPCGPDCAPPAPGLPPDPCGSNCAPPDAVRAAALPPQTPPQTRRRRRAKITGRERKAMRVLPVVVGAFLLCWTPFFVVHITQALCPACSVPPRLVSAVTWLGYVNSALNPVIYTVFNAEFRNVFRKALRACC
Protocol: as §1, §2, §3

[5] = target: T5, 5-HT1A (h) (Homo sapiens, UniProt P08908); experiment: Radioligand binding assay, serotoninergic receptor 5-HT1A; conditions: test compound 1×10^−6M; [3H]8-OH-DPAT; human recombinant (HEK-293 cells)
T5 construct: expressed in transfected cells; host or cells: HEK-293 cells
T5 sequence (P08908 1-422): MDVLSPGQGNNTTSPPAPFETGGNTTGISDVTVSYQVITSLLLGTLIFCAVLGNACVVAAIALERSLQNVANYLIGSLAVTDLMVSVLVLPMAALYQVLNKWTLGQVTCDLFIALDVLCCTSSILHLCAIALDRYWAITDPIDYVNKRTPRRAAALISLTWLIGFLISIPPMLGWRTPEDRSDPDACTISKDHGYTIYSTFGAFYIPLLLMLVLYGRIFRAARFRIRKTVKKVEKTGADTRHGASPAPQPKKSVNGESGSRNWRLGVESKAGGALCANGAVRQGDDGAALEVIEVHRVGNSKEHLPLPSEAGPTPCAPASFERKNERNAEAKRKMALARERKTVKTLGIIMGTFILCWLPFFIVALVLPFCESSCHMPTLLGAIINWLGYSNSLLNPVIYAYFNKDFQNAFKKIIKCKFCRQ
Protocol: as §1, §2, §3

[6] = target: T6, 5-HT2A (h) (Homo sapiens, UniProt P28223); experiment: Radioligand binding assay, serotoninergic receptor 5-HT2A; conditions: test compound 1×10^−6M; [3H]ketanserin; human recombinant (HEK-293 cells)
T6 construct: expressed in transfected cells; host or cells: HEK-293 cells
Protocol: as §1, §2, §3

[7] = target: T7, 5-HT6 (h) (Homo sapiens, UniProt P50406); experiment: Radioligand binding assay, serotoninergic receptor 5-HT6; conditions: test compound 1×10^−6M; [3H]LSD; human recombinant (CHO cells)
T7 construct: expressed in transfected cells; host or cells: CHO cells
Protocol: as §1, §2, §3

[8] = target: T8, 5-HT7 (h) (Homo sapiens, UniProt P34969); experiment: Radioligand binding assay, serotoninergic receptor 5-HT7; conditions: test compound 1×10^−6M; [3H]LSD; human recombinant (CHO cells)
T8 construct: expressed in transfected cells; host or cells: CHO cells
Protocol: as §1, §2, §3

[9] = target: T9, 5-HT2C (h) (Homo sapiens, UniProt P28335); experiment: Radioligand binding assay, serotoninergic receptor 5-HT2C; conditions: test compound 1×10^−6M; [3H]mesulergine; human recombinant (HEK-293 cells)
T9 construct: expressed in transfected cells; host or cells: HEK-293 cells
T9 sequence (P28335 33-458): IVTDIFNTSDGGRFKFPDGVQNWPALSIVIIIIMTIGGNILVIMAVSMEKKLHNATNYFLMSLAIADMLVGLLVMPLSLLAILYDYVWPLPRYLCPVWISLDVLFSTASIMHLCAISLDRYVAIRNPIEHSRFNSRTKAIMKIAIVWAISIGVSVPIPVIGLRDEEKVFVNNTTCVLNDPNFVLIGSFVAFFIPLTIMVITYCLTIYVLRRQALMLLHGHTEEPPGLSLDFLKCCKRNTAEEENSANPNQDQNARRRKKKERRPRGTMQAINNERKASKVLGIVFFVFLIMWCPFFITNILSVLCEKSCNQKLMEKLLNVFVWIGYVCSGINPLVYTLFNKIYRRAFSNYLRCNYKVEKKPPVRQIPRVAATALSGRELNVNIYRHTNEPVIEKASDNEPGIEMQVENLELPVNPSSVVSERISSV
Protocol: as §1, §2, §3

[10] = system: σ (non-selective); experiment: Radioligand binding assay, σ receptors; conditions: test compound 1×10^−6M; [3H]DTG; rat cerebral cortex
Protocol: as §1, §2, §3

[11] = system: α1 (non-selective); experiment: Radioligand binding assay, adrenergic α1 receptors; conditions: test compound 1×10^−6M; [3H]prazosin; rat cerebral cortex
Protocol: as §1, §2, §3

[12] = target: T10, H1 (h) (Homo sapiens, UniProt P35367); experiment: Radioligand binding assay, histaminergic H1 receptor; conditions: test compound 1×10^−6M; [3H]pyrilamine; human recombinant (HEK-293 cells)
T10 construct: expressed in transfected cells; host or cells: HEK-293 cells
Protocol: as §1, §2, §3

[13] = target: T11, M3 (h) (Homo sapiens, UniProt P20309); experiment: Radioligand binding assay, muscarinic M3 receptor; conditions: test compound 1×10^−6M; [3H]4-DAMP; human recombinant (CHO cells)
T11 construct: expressed in transfected cells; host or cells: CHO cells
Protocol: as §1, §2, §3

[14] = target: T12, α2C (h) (Homo sapiens, UniProt P18825); experiment: Radioligand binding assay, adrenergic receptor α2C; conditions: test compound 1×10^−6M; [3H]RX 821002; human recombinant (CHO cells)
T12 construct: expressed in transfected cells; host or cells: CHO cells
T12 sequence (P18825 1-462): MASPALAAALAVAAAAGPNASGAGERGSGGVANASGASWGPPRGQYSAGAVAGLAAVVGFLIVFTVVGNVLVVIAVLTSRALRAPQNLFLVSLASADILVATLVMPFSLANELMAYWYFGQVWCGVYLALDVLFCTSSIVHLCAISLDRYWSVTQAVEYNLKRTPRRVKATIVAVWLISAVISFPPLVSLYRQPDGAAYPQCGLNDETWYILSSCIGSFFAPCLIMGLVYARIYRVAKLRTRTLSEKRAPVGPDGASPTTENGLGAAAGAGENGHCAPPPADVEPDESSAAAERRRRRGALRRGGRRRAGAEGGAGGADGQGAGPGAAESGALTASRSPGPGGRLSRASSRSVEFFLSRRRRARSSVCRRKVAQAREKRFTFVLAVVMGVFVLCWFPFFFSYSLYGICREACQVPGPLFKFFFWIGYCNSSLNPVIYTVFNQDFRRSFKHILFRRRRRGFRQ
Protocol: as §1, §2, §3

[15] = target: T13, SERT (h) (Homo sapiens, UniProt P31645); experiment: Radioligand binding assay, serotonin transporter (SERT); conditions: test compound 1×10^−6M; [3H]imipramine; human recombinant (CHO cells)
T13 construct: expressed in transfected cells; host or cells: CHO cells
Protocol: as §1, §2, §3

[16] = target: T14, hERG potassium channels (KCNH2 gene, expressed in CHO cells) (Homo sapiens, UniProt Q12809); experiment: Ability to block hERG potassium channel (electrophysiology, IonWorks Quattro); format: cell-based; conditions: cloned hERG in CHO cells; test pulse +40 mV; concentration not given
T14 construct: expressed in transfected cells; host or cells: CHO cells
Protocol: Ability to Block hERG Potassium Channel Ability to block hERG potassium channels was determined using the electrophysiological method and cloned hERG potassium channels (KCNH2 gene, expressed in CHO cells) as biological material. The effects were evaluated using IonWorks™ Quattro system (MDS-AT).
hERG current was elicited using a pulse pattern with fixed amplitudes (conditioning pre-pulse: −80 mV for 25 ms; test pulse: +40 mV for 80 ms) from a holding potential of 0 mV. hERG current was measured as a difference between the peak current at 1 ms after the test step to +40 mV and the steady-state current at the end of the step to +40 mV.
Data acquisition and analyses were performed using the lonWorks Quattro™ system operation software (version 2.0.2; Molecular Devices Corporation, Union City, Calif.). Data were corrected for leak current.
The hERG block was calculated as: % Block=(1−I TA/IControl)×100%, where IControl and ITA were the currents elicited by the test pulse in control and in the presence of a test compound, respectively.

[17] = system: Male CD-1 mice; experiment: d-Amphetamine-induced locomotor hyperactivity in mice; format: in vivo; conditions: compound i.p., d-amphetamine s.c., immediately before the test, ambulation counted during 2 h
Protocol: Potential antipsychotic activity was tested for the representative compound 60 in mouse model of psychosis, involving the induction of locomotor hyperactivity by administering psychotomimetic substance—d-amphetamine. The ability of a test compound to remove that effect is a measure of potential antipsychotic activity.
Male CD-1 mice weighing 20-22 g derived from accredited animal facility localized at Medical College of Jagiellonian University were group-housed for 3-4 day period in polycarbonate Makrolon type 3 cages (dimensions 26.5×15×42 cm) in an environmentally controlled, experimental room (ambient temperature 22-20C; relative humidity 50-60%; 12:12 light:dark cycle, lights on at 8:00), in groups of 15. Standard laboratory food (Morigram, Agropol) and filtered water were freely available. On the day before experiments the equipment produces “white noise” was turned on for 30 minutes and mice or rats were weighted exact to 1 g. Animals were assigned randomly to treatment groups. […]
The locomotor activity was recorded with an Opto M3 multi-channel activity monitor (MultiDevice Software v.1.3, Columbus Instruments). Mice were individually placed in plastic cages (22×12×13 cm) and then the crossings of each channel (ambulation) were counted during 2 h with data recording every 5 minutes. […]

T8 sequence (P34969 whole entry): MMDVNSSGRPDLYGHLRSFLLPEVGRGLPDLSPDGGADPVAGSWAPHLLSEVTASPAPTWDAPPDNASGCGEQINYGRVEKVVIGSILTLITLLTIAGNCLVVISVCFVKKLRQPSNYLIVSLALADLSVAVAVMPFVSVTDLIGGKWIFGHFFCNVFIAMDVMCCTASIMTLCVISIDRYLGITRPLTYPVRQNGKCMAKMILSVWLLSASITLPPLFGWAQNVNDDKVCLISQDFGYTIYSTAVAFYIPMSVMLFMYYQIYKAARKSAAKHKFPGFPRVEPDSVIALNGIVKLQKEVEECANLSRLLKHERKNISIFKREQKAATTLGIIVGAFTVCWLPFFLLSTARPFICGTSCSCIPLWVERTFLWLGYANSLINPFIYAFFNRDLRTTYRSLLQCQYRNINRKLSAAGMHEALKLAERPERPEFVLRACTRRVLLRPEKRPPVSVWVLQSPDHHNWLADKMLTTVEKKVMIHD
T1 sequence (P14416 1-414 isoform P14416-2): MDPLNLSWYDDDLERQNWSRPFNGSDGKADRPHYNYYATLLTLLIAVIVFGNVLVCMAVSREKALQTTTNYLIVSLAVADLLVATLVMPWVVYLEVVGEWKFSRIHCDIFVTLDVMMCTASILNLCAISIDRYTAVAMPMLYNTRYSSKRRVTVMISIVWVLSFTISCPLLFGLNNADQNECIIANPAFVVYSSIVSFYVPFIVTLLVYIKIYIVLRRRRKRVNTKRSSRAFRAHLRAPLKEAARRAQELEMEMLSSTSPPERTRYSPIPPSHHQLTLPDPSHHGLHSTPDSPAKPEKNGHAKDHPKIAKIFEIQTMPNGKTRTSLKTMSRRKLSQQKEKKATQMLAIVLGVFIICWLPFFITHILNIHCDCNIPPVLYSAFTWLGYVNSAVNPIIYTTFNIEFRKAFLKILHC
T7 sequence (P50406 whole entry): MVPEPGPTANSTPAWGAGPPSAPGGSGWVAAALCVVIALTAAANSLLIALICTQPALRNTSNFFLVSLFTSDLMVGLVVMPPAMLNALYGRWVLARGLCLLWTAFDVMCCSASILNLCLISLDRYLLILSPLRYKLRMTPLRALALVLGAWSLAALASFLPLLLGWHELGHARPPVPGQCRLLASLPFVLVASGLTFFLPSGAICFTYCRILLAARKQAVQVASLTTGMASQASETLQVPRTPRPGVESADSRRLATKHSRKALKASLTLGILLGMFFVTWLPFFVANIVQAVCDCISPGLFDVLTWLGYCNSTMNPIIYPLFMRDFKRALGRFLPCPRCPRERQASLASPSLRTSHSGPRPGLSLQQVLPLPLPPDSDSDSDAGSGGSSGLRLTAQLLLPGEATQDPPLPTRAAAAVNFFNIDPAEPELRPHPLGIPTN
T3 sequence (P21728 whole entry): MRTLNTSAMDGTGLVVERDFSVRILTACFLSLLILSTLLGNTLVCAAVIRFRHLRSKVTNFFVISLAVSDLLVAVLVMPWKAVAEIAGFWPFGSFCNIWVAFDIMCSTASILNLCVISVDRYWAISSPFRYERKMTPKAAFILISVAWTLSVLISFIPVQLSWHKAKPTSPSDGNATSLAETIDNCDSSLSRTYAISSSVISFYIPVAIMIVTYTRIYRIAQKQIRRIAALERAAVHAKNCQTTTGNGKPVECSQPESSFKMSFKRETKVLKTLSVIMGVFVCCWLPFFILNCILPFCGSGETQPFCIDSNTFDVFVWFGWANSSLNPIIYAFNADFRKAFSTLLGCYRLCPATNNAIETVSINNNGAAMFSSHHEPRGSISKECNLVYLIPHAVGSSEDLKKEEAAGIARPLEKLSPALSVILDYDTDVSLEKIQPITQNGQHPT
T11 sequence (P20309 whole entry): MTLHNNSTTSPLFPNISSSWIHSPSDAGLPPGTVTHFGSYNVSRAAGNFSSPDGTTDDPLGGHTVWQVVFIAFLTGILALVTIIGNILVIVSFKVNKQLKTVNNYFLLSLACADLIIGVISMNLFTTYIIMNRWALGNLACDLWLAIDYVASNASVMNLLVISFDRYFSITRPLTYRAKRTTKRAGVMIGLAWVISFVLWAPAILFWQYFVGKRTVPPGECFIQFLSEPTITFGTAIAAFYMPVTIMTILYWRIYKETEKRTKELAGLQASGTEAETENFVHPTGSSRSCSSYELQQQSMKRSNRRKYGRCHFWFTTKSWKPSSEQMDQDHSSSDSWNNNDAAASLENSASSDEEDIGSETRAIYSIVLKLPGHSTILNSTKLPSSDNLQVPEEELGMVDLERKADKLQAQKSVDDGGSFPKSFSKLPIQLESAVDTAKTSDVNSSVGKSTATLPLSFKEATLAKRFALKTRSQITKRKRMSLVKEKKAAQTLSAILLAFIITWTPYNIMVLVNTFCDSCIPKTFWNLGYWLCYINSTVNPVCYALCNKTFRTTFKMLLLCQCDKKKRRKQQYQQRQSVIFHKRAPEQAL
T10 sequence (P35367 whole entry): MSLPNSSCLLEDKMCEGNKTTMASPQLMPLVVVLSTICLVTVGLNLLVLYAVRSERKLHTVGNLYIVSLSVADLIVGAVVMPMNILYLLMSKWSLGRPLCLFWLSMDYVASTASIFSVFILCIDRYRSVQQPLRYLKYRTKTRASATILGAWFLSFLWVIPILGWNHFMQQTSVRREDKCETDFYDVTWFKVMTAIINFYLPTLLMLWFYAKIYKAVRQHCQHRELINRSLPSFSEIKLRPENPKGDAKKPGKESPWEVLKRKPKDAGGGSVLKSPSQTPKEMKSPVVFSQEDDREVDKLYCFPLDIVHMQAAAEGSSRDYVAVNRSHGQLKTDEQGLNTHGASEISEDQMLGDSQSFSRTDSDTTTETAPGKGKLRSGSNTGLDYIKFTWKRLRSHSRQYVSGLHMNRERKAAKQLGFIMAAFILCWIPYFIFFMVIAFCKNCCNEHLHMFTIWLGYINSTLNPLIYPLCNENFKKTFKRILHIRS
T13 sequence (P31645 whole entry): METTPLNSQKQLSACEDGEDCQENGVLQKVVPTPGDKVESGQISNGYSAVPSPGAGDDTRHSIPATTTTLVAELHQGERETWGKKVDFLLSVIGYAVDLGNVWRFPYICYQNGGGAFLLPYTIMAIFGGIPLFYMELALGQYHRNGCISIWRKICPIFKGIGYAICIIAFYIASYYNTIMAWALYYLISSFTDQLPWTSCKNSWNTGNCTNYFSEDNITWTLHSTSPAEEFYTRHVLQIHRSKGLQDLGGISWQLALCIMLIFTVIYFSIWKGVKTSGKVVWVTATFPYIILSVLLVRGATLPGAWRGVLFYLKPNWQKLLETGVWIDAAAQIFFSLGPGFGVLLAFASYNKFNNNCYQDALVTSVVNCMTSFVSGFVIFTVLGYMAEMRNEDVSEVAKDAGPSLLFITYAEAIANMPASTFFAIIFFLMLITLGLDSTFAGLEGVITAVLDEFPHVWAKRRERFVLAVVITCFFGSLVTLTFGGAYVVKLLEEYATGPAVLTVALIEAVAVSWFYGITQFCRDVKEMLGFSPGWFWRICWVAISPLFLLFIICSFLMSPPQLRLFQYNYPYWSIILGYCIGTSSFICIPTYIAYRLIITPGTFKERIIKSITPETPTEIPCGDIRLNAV
T6 sequence (P28223 whole entry): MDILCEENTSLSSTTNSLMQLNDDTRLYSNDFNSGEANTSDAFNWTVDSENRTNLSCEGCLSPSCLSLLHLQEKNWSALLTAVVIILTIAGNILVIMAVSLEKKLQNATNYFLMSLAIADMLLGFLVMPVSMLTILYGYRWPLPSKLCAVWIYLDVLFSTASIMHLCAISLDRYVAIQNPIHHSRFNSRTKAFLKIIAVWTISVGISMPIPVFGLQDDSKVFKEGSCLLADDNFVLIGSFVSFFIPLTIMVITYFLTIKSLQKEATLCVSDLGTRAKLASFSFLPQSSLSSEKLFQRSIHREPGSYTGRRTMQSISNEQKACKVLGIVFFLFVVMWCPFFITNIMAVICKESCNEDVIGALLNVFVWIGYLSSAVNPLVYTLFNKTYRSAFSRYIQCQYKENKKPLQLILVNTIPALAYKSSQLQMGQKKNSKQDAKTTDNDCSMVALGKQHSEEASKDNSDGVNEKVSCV
T2 sequence (P35462 whole entry): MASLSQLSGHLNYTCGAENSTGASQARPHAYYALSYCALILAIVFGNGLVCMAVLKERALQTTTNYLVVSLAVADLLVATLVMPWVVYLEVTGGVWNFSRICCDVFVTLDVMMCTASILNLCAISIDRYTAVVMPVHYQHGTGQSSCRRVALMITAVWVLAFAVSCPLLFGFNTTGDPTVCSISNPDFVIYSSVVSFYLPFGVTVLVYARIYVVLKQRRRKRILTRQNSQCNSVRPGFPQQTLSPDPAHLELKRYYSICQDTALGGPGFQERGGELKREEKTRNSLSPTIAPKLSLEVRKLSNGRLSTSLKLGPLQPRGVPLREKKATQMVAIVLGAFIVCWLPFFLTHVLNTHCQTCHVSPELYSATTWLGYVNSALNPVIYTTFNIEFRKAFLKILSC

Compound	D2 [%] [1] [%]	D3 [%] [2] [%]	D1 [%] [3] [%]	D4.4 [%] [4] [%]	5-HT1A [%] [5] [%]	5-HT2A [%] [6] [%]	5-HT6 [%] [7] [%]	5-HT7 [%] [8] [%]	5-HT2C [%] [9] [%]	σ [%] [10] [%]	α1 [%] [11] [%]	H1 [%] [12] [%]	M3 [%] [13] [%]	α2C [%] [14] [%]	SERT [%] [15] [%]	hERG [%] (% Block) [16]	MED (Minimum Effective Dose) [17] [mg/kg]
N-[3-[[3-(6-fluoro-1,2-benzoxazol-3-yl)propylamino]methyl]phenyl]naphthalene-1-sulphonamide [Compound 54]	94	76	27	54	43	80	88	90	17	50	48	7	2	32	42		
CN(CCCc1noc2cc(F)ccc12)Cc1cccc(NS(=O)(=O)c2ccc(C(C)(C)C)cc2)c1 [Compound 72, 4-tert-butylo-N-[3-[[3-(6-fluoro-1,2-benzoxazol-3-yl)propylmethylamino]methyl]-phenyl]benzenesulphonamide]	93	63	45	60	30	87	99	93	23	80	77	64	25	81	42		
CN(CCCc1noc2cc(F)ccc12)Cc1cccc(NS(=O)(=O)c2ccccc2)c1 [Compound 60, N-[3-[[3-(6-fluoro-1,2-benzoxazol-3-yl)propylmethylamino]methyl]phenyl]benzenesulphonamide]																6	10

Source: US20150051257A1, “SULPHONAMIDE DERIVATIVES OF BENZYLAMINE FOR THE TREATMENT OF CNS DISEASES” (ADAMED SP. Z O.O, priority 2012, published 2015)
